Assay [1] deals with human T24 bladder carcinoma cells. As to the kind of experiment: Inhibition of growth of human T24 bladder carcinoma cells (methylene blue staining, 5 days). The assay is classed as cell-based. As to conditions: 120 h, Eagle's minimal essential medium, 5 days incubation. The method, then: The carcinoma cells (1000-1500) are transferred to 96-well microlitre plates and are incubated overnight under the said conditions. The test compound is added in serial dilutions on day 1. The plates are incubated under the said conditions for 5 days. During that period, control cultures undergo at least 4 cell divisions. After incubation, the cells are fixed with 3.3% (weight/volume=w/v) aqueous glutaraldehyde solution, washed with water and stained with 0.05% (w/v) aqueous methylene blue solution. After washing, the dye is eluted with 3% (w/v) aqueous hydrochloric acid. The optical density (OD) per well, which is directly proportional to the number of cells, is then measured by means of a photometer (Titertek multiskan) at 665 nm. The IC50 values are calculated by means of a computer system using the formula [formula] The IC50 value is defined as the concentration of active ingredient at which the number of cells per well at the end of the incubation period is only 50% of the number of cells in the control cultures. Inhibition of growth of human T24 bladder carcinoma cells: Using the method for inhibition of growth of human T24 bladder carcinoma cells om Eagle's minimal essential medium (see above), the following test results are obtained (given as IC50 =concentration of the active ingredient at which the number of cells per well at the end of the incubation period is only 50% of the number of cells in the control cultures): […]

Assay [2] has as its system mouse ascites L1210 leukaemia cells. As to the kind of experiment: Levels of putrescine, spermidine and spermine (polyamine pools) in mouse ascites L1210 leukemia cells (method of Porter et al., HPLC). The class given is cell-based. Conditions: 48 h incubation; for activity at 10 µM: test compound 10 μM; for activity at 5 µM: test compound 5 μM. The method, then: Mouse ascites L1210 leukaemia cells are cultured (at 37° C.) in RPMI-1640 medium (which contains, per litre, 100 mg of Ca(NO3)2,400 mg of KCl, 100 mg of MgSO4.7H2 O, 6000 mg of NaCl, 2000 mg of NaHCO3, 801 mg of Na2 HPO4, 242 mg of L-Arg.HCl, 50 mg of L-Ash, 20 mg of L-Asp, 50 mg of L-Cys, 300 mg of L-Gln, 20 mg of L-Glu, 10 mg of Gly, 18.2 mg of L-His.HCl.H2 O, 20 mg of L-hydroxyproline, 50 mg of L-Leu, 40 mg of L-Lys.HCl, 15 mg of L-Met, 15 mg of L-Phe, 20 mg of L-Pro, 30 mg of L-Ser, 20 mg of L-Thr, 5 mg of L-Trp, 20 mg of L-Tyr, 20 mg of L-Vat, 1 mg of […], 0.2 mg of biotin, 3 mg of choline chloride, 1 mg of folic acid, 35 mg of i-inositol, 1 mg of nicotinamide, 0.25 mg of pantothenoic acid calcium salt, 1 mg of pyridoxine.HCl, 0.2 mg of riboflavin, 1 mg of thiamine. HCl, 0.005 mg of vitamin B12, 2000 mg of glucose, 1 mg of glutathione, and 5 mg of phenol red), which also contains 2 % 4-(2-hydroxyethyl)-1-piperazineethanesulfonic acid/3-(N-morpholino)propanesulfonic acid, 1 mM aminoguanidine and 10% NuSerum (Collaborative Research Inc., Lexington, Mass.). The cells are cultured under a humid 5% carbon dioxide atmosphere at 37° C. either in glass culture tubes (2 ml) or in 25 or 75 cm^2 tissue culture bottles in a total volume of 15 or 50 ml, respectively. The cultures are treated with the compounds of formula I or with 0.1 mM spermidine (controls: without corresponding compounds) during the logarithmic growth phase (0.5 to 1×10^5 cells/ml). The number of cells is measured by electronic particle counting (Model ZF Coulter Counter, Coulter Electronics, Hialeah, Fla.) and confirmed from time to time by haemocytometer measurements. The viability of the cells is measured by trypan blue exclusion measurement (0.5% in unbuffered 0.9% sodium chloride solution ).
For polyamine determination, the cell samples are washed twice in cold PBS (="Phosphate Buffered Saline"--contains per litre 8000 mg of NaCl, 200 mg of KCl, 1150 mg of Na2 HPO4.2H2 O, 200 mg of KH2 PO4, 100 mg of MgCl2.H2 O, 200 mg of MgSO4.H2 O and CaCl2; pH 7.2), and an aliquot of 10^7 cells is removed for polyamine determination. The cells are formed into a pellet, and the PBS supernatant is removed carefully using a cotton wool swab. The pellet containing the cells is then maintained together with 0.5 ml of 0.6M perchloric acid for 30 minutes at 4° C. and is then centrifuged for 3 minutes at 12,000 g using a microcentrifuge. The supernatant is frozen at -20° C. until the HPLC analysis. For that purpose, the polyamines in a 50 μl sample of the perchloric acid extract are separated over an HPLC system using a glass "Microbore Column" having a diameter of 2.8 mm, which is packed to a height of 2 cm with TLC-4A-cationexchange resin (Durrum Chemical Corp., Palo Alto, Calif.). The column temperature is maintained at 65° C. by means of a water bath with circulating water. The column is eluted at a flow rate of 16 ml/h with an initial column pressure of 34.45 bar, which decreases as the ionic strength of the elution buffer increases. Buffer 1 (which contains 0.2M boric acid, 0.5M NaCl, 0.03% Brij 35 (polyoxyethylene monolauryl ether, the number of ethyleneoxy radicals is approximately 23; Pierce Chemical Co., Rockford, Ill.) and 0.0001% octanoic acid, pH adjusted to 6.0 with saturated KOH) is flushed through the column for 4 minutes. Buffer 2 (which contains 0.2M boric acid, 2.15M NaCl, 0.03% Brij 35 and 0.0001% octanoic acid, pH adjusted as above) is pumped through for 6 minutes. Buffer 3 (which contains 0.2M boric acid, 2.9M NaCl and 0.0001% octanoic acid (pH adjusted as above)) is likewise applied for 6 minutes. The column is re-equilibrated for 10 minutes with buffer 1, before the next sample is introduced. The column eluate is derivatised with 0.05% o-phthalaldehyde (Durrum Chemical Corp.) in 0.4M borate buffer (pH 10.4)/1 mM 2-mercaptoethanol/0.09% Brij 35. The flow rate for o-phthalaldehyde is 8 ml/h. […]

Setting [3] is: read-out: level of putrescine (PU), % of the respective control.
The mark [4] stands for this setting: read-out: level of spermidine (SPD), % of the respective control.
The mark [5] stands for this setting: read-out: level of spermine (SPM), % of the respective control.

Where a name gives a salt, the structure may show the parent alone. Read-outs that look alike come from different tables or passages of the source.

A word on the IC50: it is the concentration that inhibits the measured activity by half. A higher IC50 goes with a need for much substance. As to `CCCNCCCNC/C=C/CNCCCNCCC` [Example 1, (E)-1,14Di-propyl-1,5,10,14-tetraazatetradec-7-ene tetrahydrochloride], the half-maximal inhibitory concentration (IC50) in assay [1] was 0.64 µM. Also, the values for the activity at 10 µM in assay [2] (setting [3]), in assay [2] (setting [4]) and in assay [2] (setting [5]) were 9.4%, 12% and 67%, respectively.

The compound `C=CCNCCCNC/C=C/CNCCCNCC=C` [Example 2, (E)-1,14-Di-allyl-1,5,10,14-tetraazatetradec-7-ene tetrahydrochloride] registered an IC50 in assay [1] of 0.6 µM. Further, the activity at 10 µM in assay [2] (setting [3]) was determined as 16%; in assay [2] (setting [4]), 3.1%; in assay [2] (setting [5]), 36%.

Compound `CCCCNCCCNC/C=C/CNCCCNCCCC` [Example 3, (E)-1,14-Di-butyl-1,5,10,14-tetraazatetradec-7-ene tetrahydrochloride] gave an IC50 in assay [1] of 8.2 µM.

For `CCNCCCNC/C=C/CNCCCNCC` [Example 5, (E)-1,14-Di-ethyl-1,5,10,14-tetraazatetradec-7-ene tetrahydrochloride], the activity at 5 µM in assay [2] (setting [3]) was 4.1%; in assay [2] (setting [4]), 2.1%; in assay [2] (setting [5]) it was 30%.

As for `C=CCNCCCNC/C=C/CNCCCNCC` [Example 6, (E)-1-Ally-14-ethyl-1,5,10,14-tetraazatetradec-7-ene tetrahydrochloride], the midpoint of inhibition in assay [1], the IC50, lay at 3 µM. Moreover, the activity at 10 µM in assay [2] (setting [3]) came to 4.1%; in assay [2] (setting [4]), 2.1%; in assay [2] (setting [5]) it was 12%.

As for `CCCCNCCCNC/C=C/CNCCCNCC` [Example 8, (E)-1-Butyl-14-ethyl-1,5,10,14-tetraazatetradec-7-ene tetrahydrochloride], it took 0.55 µM to reach half-maximal inhibition in assay [1] (IC50). The activity at 10 µM was determined as 4.8% in assay [2] (setting [3]), 0.2% in assay [2] (setting [4]) and 4% in assay [2] (setting [5]).

In assay [1], `CCCNCCCNC/C=C/CNCCCNCC` [Example 9, (E)-1-Ethyl-14-propyl-1,5,10,14-tetraazatetradec-7-ene tetrahydrochloride] came in with a concentration for half-maximal inhibition (IC50) of 1.1 µM. The activity at 10 µM in assay [2] (setting [3]) turned out to be 6.9%; in assay [2] (setting [4]), 2%; in assay [2] (setting [5]), 19%.

Regarding `C=CCNCCCNC/C=C/CNCCCNCCC` [Example 13, (E)-1-Allyl-14-propyl-1,5,10,14-tetraazatetradec-7-ene tetrahydrochloride], it took 2.14 µM to reach half-maximal inhibition in assay [1] (IC50). For the same compound, the activity at 10 µM in assay [2] (setting [3]) amounted to 0%; in assay [2] (setting [4]), 1.3%; in assay [2] (setting [5]) it was 25%.

As to `C(=C\CNCCCNCC1CC1)/CNCCCNCC1CC1` [Example 16, (E)-1,14-Di-cyclopropylmethyl-1,5,10,14-tetraazatetradec-7-ene tetrahydrochloride], the IC50 in assay [1] came to 0.92 µM. Further, the results for the activity at 10 µM in assay [2] (setting [3]), in assay [2] (setting [4]) and in assay [2] (setting [5]) were 12%, 24% and 62%, respectively.

These data come from patent US5627215A, “Unsaturate amino compounds for use as anticancer and antiprotozoic agent” (Ciba-Geigy Corporation, priority 1993, dated 1997).
